Measurements from patent US20090275538A1, “ARYLMETHYLIDENE HETEROCYCLES AS NOVEL ANALGESICS” (priority 2008, published 2009).

system: neuropathic rats (chronic constriction injury of the left sciatic nerve); assay: Analgesic effect in chronic constriction injury (Bennett) model of neuropathic pain, Von Frey 50% withdrawal threshold; format: in vivo, Sprague-Dawley rats; settings: rats rendered neuropathic via the Bennett Model; intrathecal administration in Captisol; mean ± SEM; p<0.05 vs vehicle control
Experimental: Determination of Analgesic Effect in an Experimental Model of Neuropathic Pain
Adult, male Sprague-Dawley rats were obtained from Charles River Laboratories (Wilmington, Mass.) and housed under standard conditions at the Institut Armand-Frappier (Laval, QC). Food and water were provided to experimental animals ad libitum, and rats weighed 175-200 grams at the time of assessment.
Compounds were prepared for intrathecal administration by dissolving them in a vehicle of Captisol® (CyDex, Lenexa, Kans.); total volume of solution administered to rats was 20 μL.
Neuropathic pain was induced in rats via chronic constriction injury (CCl) of the left sciatic nerve in accordance with the procedure described by Bennett & Xie (Pain, 1988). Briefly, under ketamine/xylazine anaesthesia, the sciatic nerve was exposed by dissection at the level of mid-thigh, and four loose ligatures (USP 4/0, Braun Melsungen, FRG) were implanted around the nerve—with due attention not to interrupt the epineural circulation. The incision was closed-up using simple suturing, and the rats allowed to recover.
After approximately two weeks, a stable allodynia to blunt mechanical stimuli was identified in the hind paw ipsilateral to the CCl, manifested as a reduction of 50% withdrawal threshold, and identified using the Von Frey technique, as described by Chaplan et al. (Journal of Neuroscience Methods, 1994). Rats were considered to be fully neuropathic upon displaying a 50% withdrawal threshold of <3.5 grams consistently over the course of 72 hours.
Under brief isoflurane […], compounds were administered to neuropathic rats via acute local delivery in the intrathecal space surrounding the lumbar enlargement of the spinal cord.

| Compound | Peak 50% Withdrawal Threshold [g] |
| --- | --- |
| CCN(CC)C1CCN(C2=NC(=O)/C(=C\c3cc(F)ccc3OC(=O)N(C)C)S2)C1 (stereo not shown) | 11.84 ± 1.58 |
| CN(C)[C@@H]1CCN(C2=NC/C(=C/c3cc(F)ccc3O)S2)C1.Cl | 6.44 ± 1.33 |
| CN(C)[C@H]1CCN(C2=NC(=O)/C(=C/c3cc(F)ccc3O)S2)C1.CS(=O)(=O)O | 9.72 ± 2.04 |
| CN(C)[C@@H]1CCN(C2=NC(=O)/C(=C/c3ccc(F)cc3O)S2)C1 | 5.6 ± 1.94 |
| CN(C)[C@H]1CCN(C2=NC(=O)/C(=C/c3ccc(F)cc3O)S2)C1.CS(=O)(=O)O | 7.3 ± 1.37 |
| O=C1N=C(N2CCCCC2)S/C1=C\c1ccccc1O | 6.74 ± 2.13 |
| O=C1N=C(N2CCN(CCO)CC2)S/C1=C\c1ccc(F)cc1O | 8.23 ± 2.40 |
| CS(=O)(=O)O.O=C1N=C(N2CCN(CCO)CC2)S/C1=C\c1cc(F)ccc1O | 6.40 ± 2.45 |
| Cl.O=C1N=C(N2CCCCN2)S/C1=C/c1cc(F)ccc1OC(=O)N1CCCC1 [2-{[(5E)-2-(1,2-diazinan-1-yl)-4-oxo-4,5-dihydro-1,3-thiazol-5-ylidene]methyl}-4-fluorophenylpyrrolidine-1-carboxylate hydrochloride] | 8.18 ± 1.98 |
| CN(C)C(=O)Oc1cc(F)ccc1/C=C1/SC(N2CCCCN2)=NC1=O.Cl [2-{[(5E)-2-(1,2-diazinan-1-yl)-4-oxo-4,5-dihydro-1,3-thiazol-5-ylidene]methyl}-5-fluorophenyl N,N-dimethylcarbamate hydrochloride] | 6.18 ± 1.77 |
| Cl.O=C1N=C(N2CCCCN2)S/C1=C/c1ccc(F)cc1OC(=O)N1CCCC1 [2-{[(5E)-2-(1,2-diazinan-1-yl)-4-oxo-4,5-dihydro-1,3-thiazol-5-ylidene]methyl}-5-fluorophenyl pyrrolidine-1-carboxylate hydrochloride] | 7.42 ± 1.21 |
| O=C1N=C(N2CCCCN2)S/C1=C\c1ccc(F)cc1O [(5Z)-2-(1,2-diazinan-1-yl)-5-[(4-fluoro-2-hydroxyphenyl)methylidene]-4,5-dihydro-1,3-thiazol-4-one] | 7.37 ± 2.02 |
| O=C1N=C(N2CCCCN2)S/C1=C\c1cc(F)ccc1O [(5Z)-2-(1,2-diazinan-1-yl)-5-[(5-fluoro-2-hydroxyphenyl)methylidene]-4,5-dihydro-1,3-thiazol-4-one] | 9.03 ± 2.00 |
